Reference: the supplement of paper PMC13380429

Experiments:
Details in all cases: 72 h
Calu-3 [1] = assay: drug sensitivity score (DSS) for viability; higher = more toxic; extreme values may be limits of the assay
HepG2 [2] = assay: as above
U2OS [3] = assay: as above
Vero E6 [4] = assay: as above
Caco-2 [5] = assay: cell viability relative to DMSO; higher = less toxic
Calu-3 [6] = assay: as above
HepG2 [7] = assay: as above
U2OS [8] = assay: as above
Vero E6 [9] = assay: as above
Caco-2 [10] = assay: relative viability EC50 (midpoint between 100% and the lowest measured viability); higher = less toxic
Calu-3 [11] = assay: as above
HepG2 [12] = assay: as above
Caco-2 [13] = assay: drug sensitivity score (DSS) for viability; higher = more toxic; extreme values may be limits of the assay
U2OS [14] = assay: relative viability EC50 (midpoint between 100% and the lowest measured viability); higher = less toxic

Structure (SMILES) | drug sensitivity score (Calu-3 [1]) | drug sensitivity score (HepG2 [2]) | drug sensitivity score (U2OS [3]) | drug sensitivity score (Vero E6 [4]) | cell viability (Caco-2 [5]; 1 nM) [%] | cell viability (Caco-2 [5]; 10 nM) [%] | cell viability (Caco-2 [5]; 100 nM) [%] | cell viability (Caco-2 [5]; 1000 nM) [%] | cell viability (Caco-2 [5]; 10000 nM) [%] | cell viability (Calu-3 [6]; 1 nM) [%] | cell viability (Calu-3 [6]; 10 nM) [%] | cell viability (Calu-3 [6]; 100 nM) [%] | cell viability (Calu-3 [6]; 1000 nM) [%] | cell viability (Calu-3 [6]; 10000 nM) [%] | cell viability (HepG2 [7]; 1 nM) [%] | cell viability (HepG2 [7]; 10 nM) [%] | cell viability (HepG2 [7]; 100 nM) [%] | cell viability (HepG2 [7]; 1000 nM) [%] | cell viability (HepG2 [7]; 10000 nM) [%] | cell viability (U2OS [8]; 1 nM) [%] | cell viability (U2OS [8]; 10 nM) [%] | cell viability (U2OS [8]; 100 nM) [%] | cell viability (U2OS [8]; 1000 nM) [%] | cell viability (U2OS [8]; 10000 nM) [%] | cell viability (Vero E6 [9]; 1 nM) [%] | cell viability (Vero E6 [9]; 10 nM) [%] | cell viability (Vero E6 [9]; 100 nM) [%] | cell viability (Vero E6 [9]; 1000 nM) [%] | cell viability (Vero E6 [9]; 10000 nM) [%] | relative viability EC50 (Caco-2 [10]) [µM] | relative viability EC50 (Calu-3 [11]) [µM] | relative viability EC50 (HepG2 [12]) [µM] | drug sensitivity score (Caco-2 [13]) | relative viability EC50 (U2OS [14]) [µM]
COc1ccc2c(c1OC)C(=O)O[C@@H]2[C@H]1c2cc3c(cc2CCN1C)OCO3 [hydrastine-(1R,9S)] | 0 | 0 | 0 | 0 | – | – | – | – | – | – | – | – | – | – | – | – | – | – | – | – | – | – | – | – | – | – | – | – | – | – | – | – | – | –
Cc1ccc(-n2nc(C(C)(C)C)cc2NC(=O)NCc2cc(F)ccc2Oc2ccc3c(cnn3CCO)c2)cc1 [pexmetinib] | 0 | 7 | 4.5 | 1.4 | 100 | 93.2 | 91.4 | 84.3 | 81.4 | 100 | 85.9 | 93.2 | 95.8 | 91 | 96.9 | 109 | 104 | 90.7 | 0.1 | 96.8 | 90.8 | 97.1 | 80.9 | 54.3 | 97.6 | 100 | 91.2 | 104 | 64.7 | > 10 | > 10 | 2.4 | 2.1 | –
C[N+]1(C)[C@@H]2C[C@@H](OC(=O)[C@H](CO)c3ccccc3)C[C@H]1[C@@H]1O[C@@H]12 [methscopolamine] | 0 | 0 | 0 | 0 | – | – | – | – | – | – | – | – | – | – | – | – | – | – | – | – | – | – | – | – | – | – | – | – | – | – | – | – | – | –
Cc1nc(N)sc1CCN [amthamine] | 0 | 0 | – | – | 96.3 | 95.3 | 87.4 | 92.4 | 96.5 | 98.2 | 97.3 | 105 | 109 | 109 | 104 | 105 | 106 | 122 | 99.4 | – | – | – | – | – | – | – | – | – | – | > 10 | > 10 | > 10 | 0 | –
Cn1cc(-c2ccncc2)c(-c2ccc(OCc3ccc4ccccc4n3)cc2)n1 | 0.9 | 0 | 0 | – | 91.1 | 106 | 90.5 | 106 | 67.2 | 104 | 105 | 103 | 98.9 | 77.1 | 105 | 99.2 | 108 | 95.6 | 91.5 | 94 | 101 | 96.7 | 94.6 | 87.5 | – | – | – | – | – | – | > 10 | > 10 | 1.2 | > 10
Nc1ncnc2c1c(-c1cccc(OCc3ccccc3)c1)cn2[C@H]1C[C@@H](CN2CCC2)C1 [NVP-AEW541] | 3.3 | 7.4 | 4.5 | 2.4 | 99.8 | 97 | 94.5 | 80.8 | 45.1 | 112 | 103 | 99.4 | 93.3 | 57.2 | 96.4 | 93.6 | 92.4 | 68.1 | 32.3 | 98.1 | 97.9 | 106 | 86.6 | 52.5 | 100 | 102 | 99 | 92.9 | 69.6 | 1.4 | – | 1 | 5.2 | –
CO[C@H]1C[C@@H]2CC[C@@H](C)[C@@](O)(O2)C(=O)C(=O)N2CCCC[C@H]2C(=O)O[C@H]([C@H](C)C[C@@H]2CC[C@@H](O)[C@H](OC)C2)CC(=O)[C@H](C)/C=C(\C)[C@@H](O)[C@@H](OC)C(=O)[C@H](C)C[C@H](C)/C=C/C=C/C=C/1C [sirolimus] | 29 | 17.5 | 21.2 | 17.5 | 72.7 | 55.4 | 56.8 | 52 | 54.2 | 65.3 | 42.2 | 42.6 | 47.5 | 47.3 | 78.3 | 63.9 | 60.4 | 66.1 | 53.7 | 77 | 57.9 | 60.3 | 55.8 | 59.9 | 92.3 | 69.4 | 58.6 | 55.9 | 60.6 | – | < 0.001 | – | 22.7 | –
